US20250019377A1 (JACOBIO PHARMACEUTICALS CO., LTD, priority 2021, published 2025)
Where “and” joins values, the source holds several entries; their conditions need not be identical. Equal entries are not always repeated. Where two headings read alike, the source gives them in different places.

Experiments:
[1] = tested on: NCI-H358 cells (K-Ras G12C)
[2] = tested on: Capan-2 cells (K-Ras G12V)
[3] = tested on: AGS cells (K-Ras G12D); assay: 2D cell growth inhibition assay, AGS; assay type: cell-based; conditions: Homo sapiens, 144 h, 6 days, absolute IC50
[4] = tested on: p-ERK in AGS cells (K-Ras G12D); assay: Phospho-ERK1/2(THR202/TYR204) HTRF assay, AGS; assay type: cell-based; conditions: Homo sapiens, 2 h, 2 hours incubation
[5] = tested on: p-ERK in MKN-1 cells (K-Ras WT amplification); assay: Phospho-ERK1/2(THR202/TYR204) HTRF assay, MKN-1; assay type: cell-based; conditions: Homo sapiens; MKN-1, K-Ras WT, 2 hours incubation
[6] = tested on: TCC-PAN2 cells (K-Ras G12R); assay: 3D cell growth inhibition assay, TCC-PAN2; assay type: cell-based; conditions: 144 h, 6 days, absolute IC50
[7] = tested on: SW620 cells (K-Ras G12V); assay: 2D cell growth inhibition assay, SW620; assay type: cell-based; conditions: Homo sapiens, SW-620, 144 h, 6 days, absolute IC50
[8] = tested on: NCI-H460 cells (K-Ras Q61H); assay: 3D cell growth inhibition assay, NCI-H460; assay type: cell-based; conditions: Homo sapiens, 144 h, 6 days, absolute IC50
[9] = tested on: p-ERK in NCI-H747 cells (K-Ras G13D)
[10] = tested on: RERF-LC-Ad1 cells (K-Ras G12A)
[11] = tested on: p-ERK in SW620 cells (K-Ras G12V); assay: Phospho-ERK1/2(THR202/TYR204) HTRF assay, SW620; assay type: cell-based; conditions: Homo sapiens, SW-620, 2 h, 2 hours incubation
[12] = tested on: p-ERK in NCI-H358 cells (K-Ras G12C); assay: Phospho-ERK1/2(THR202/TYR204) HTRF assay, NCI-H358; assay type: cell-based; conditions: Homo sapiens, 2 hours incubation
[13] = tested on: MKN-1 cells (K-Ras WT); assay: 3D cell growth inhibition assay, MKN-1; assay type: cell-based; conditions: Homo sapiens, 144 h, MKN-1, K-Ras WT, 6 days, absolute IC50
[14] = tested on: p-ERK in TCC-PAN2 cells (K-Ras G12R); assay: Phospho-ERK1/2(THR202/TYR204) HTRF assay, TCC-PAN2; assay type: cell-based; conditions: 2 hours incubation
[15] = tested on: NCI-H747 cells (K-Ras G13D)
[16] = tested on: p-ERK in NCI-H460 cells (K-Ras Q61H); assay: Phospho-ERK1/2(THR202/TYR204) HTRF assay, NCI-H460; assay type: cell-based; conditions: Homo sapiens, 2 hours incubation
[17] = tested on: AsPC-1 cells (K-Ras G12D); assay: 2D cell growth inhibition assay, AsPC-1; assay type: cell-based; conditions: Homo sapiens, ASPC1, 144 h, AsPC-1, K-Ras G12D, 6 days, absolute IC50
[18] = molecular target: T1, K-Ras WT (Homo sapiens, UniProt P01116); assay: SOS1 catalyzed nucleotide exchange assay (GDP form K-Ras), K-Ras WT; conditions: read-out: K-Ras WT GDP Biochemical Activity (IC50)
[19] = molecular target: T2, K-Ras G13D (Homo sapiens, UniProt P01116, G13D); assay: biochemical
[20] = molecular target: T2, K-Ras G13D; assay: biochemical; remark: listed apart in the source
[21] = molecular target: T3, K-Ras G12V (Homo sapiens, UniProt P01116, G12V); assay: biochemical
[22] = molecular target: T3, K-Ras G12V; assay: SOS1 catalyzed nucleotide exchange assay (GDP form K-Ras), K-Ras G12V; conditions: read-out: K-Ras G12V GDP Biochemical Activity (IC50)
[23] = molecular target: T1, K-Ras WT; assay: biochemical

T1 sequence (P01116 1-169 isoform P01116-2): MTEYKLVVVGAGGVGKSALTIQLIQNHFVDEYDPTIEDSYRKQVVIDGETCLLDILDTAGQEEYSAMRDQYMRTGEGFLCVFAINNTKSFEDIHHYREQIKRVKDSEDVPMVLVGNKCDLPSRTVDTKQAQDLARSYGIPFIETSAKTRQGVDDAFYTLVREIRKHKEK
T2 sequence (P01116 1-169 isoform P01116-2 G13D): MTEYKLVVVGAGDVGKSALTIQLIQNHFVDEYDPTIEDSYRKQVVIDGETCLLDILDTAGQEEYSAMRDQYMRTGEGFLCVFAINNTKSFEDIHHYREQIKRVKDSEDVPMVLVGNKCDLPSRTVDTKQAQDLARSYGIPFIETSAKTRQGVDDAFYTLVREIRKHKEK
T3 sequence (P01116 1-169 isoform P01116-2 G12V): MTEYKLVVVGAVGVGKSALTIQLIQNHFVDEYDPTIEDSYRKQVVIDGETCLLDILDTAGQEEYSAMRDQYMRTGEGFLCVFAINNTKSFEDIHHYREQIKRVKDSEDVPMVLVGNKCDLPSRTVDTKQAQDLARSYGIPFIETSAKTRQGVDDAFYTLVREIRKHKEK

IC50 [1] [nM] | IC50 [2] [nM] | IC50 [3] [nM] | IC50 [4] [nM] | IC50 [5] [nM] | IC50 [7] [nM] | IC50 [8] [nM] | IC50 [9] [nM] | IC50 [10] [nM] | IC50 [11] [nM] | IC50 [12] [nM] | IC50 [13] [nM] | IC50 [14] [nM] | IC50 [15] [nM] | IC50 [16] [nM] | IC50 [17] [nM] | IC50 [18] | IC50 [19] [nM] | IC50 [20] [nM] | SMILES | IC50 [6] [nM] | other results
2.57 | 2.91 | 0.423 | 0.255 | 1 | 0.858 | 17.9 | 0.701 | 2.52 | 1.01 | 0.881 | 3.7 | 13.5 | 0.807 | 1.66 | 2.73 | – | – | – | C#Cc1c(F)ccc2cc(O)cc(-c3ncc4c(N5CCCO[C@@H]6C[C@@H]65)nc(OC[C@@]56CCCN5C[C@H](F)C6)nc4c3F)c12 (single isomer, unassigned) [Compound 7B] | 41 | –
– | – | – | – | – | – | – | – | – | 98.6 | – | – | – | – | – | – | 40.2 nM | 24.7 | > 100 | C#Cc1c(F)ccc2cc(O)cc(-c3ncc4c(N5CCOC[C@@H](OC)C5)nc(OC[C@@]56CCCN5C[C@H](F)C6)nc4c3F)c12 (single isomer, unassigned) [Compound 49A] | – | IC50 [21]: 5620 nM; IC50 [22]: 11 nM
– | – | 41.2 | 62.2 | – | 54.5 | – | – | – | 19.9 | – | – | – | – | – | 428 | 2 nM | > 100 | > 100 | C#Cc1c(F)ccc2cc(O)cc(-c3ncc4c(N5CCOC[C@H](OC)C5)nc(OC[C@@]56CCCN5C[C@H](F)C6)nc4c3F)c12 (single isomer, unassigned) [Compound 49B] | – | IC50 [21]: 552 nM; IC50 [22]: 0.77 nM; IC50 [23]: 144 nM
– | 28.7 | 2.45 | 0.974 | 1.34 | 4.68 | 75.1 | 1.64 | 20.6 | 2.74 | 2.2 | 8.23 | 207 | 5.65 | 7.04 | 43.8 | – | – | – | C#Cc1c(F)ccc2cc(O)cc(-c3ncc4c(N5CCCOCC5)nc(OC[C@@]56CCCN5C[C@H](F)C6)nc4c3F)c12 [Compound 1, 5-ethynyl-6-fluoro-4-(8-fluoro-2-(((2R,7aS)-2-fluorotetrahydro-1H-pyrrolizin-7a(5H)-yl)methoxy)-4-(1,4-oxazepan-4-yl)pyrido[4,3-d]pyrimidin-7-yl)naphthalen-2-ol trifluoroacetic acid] | 189 | –
2.32 | 7.34 | 0.778 | 0.82 | 3.44 | 1.33 | 39.8 | 0.919 | 5.2 | 2.21 | 1.67 | 3.46 | 31 | 3.17 | 2.95 | 12.8 | – | – | – | C#Cc1c(F)ccc2cc(O)cc(-c3ncc4c(N5CCCOC6CC65)nc(OC[C@@]56CCCN5C[C@H](F)C6)nc4c3F)c12 (stereo partly drawn) [Compound 7, 4-(4-(2-oxa-6-azabicyclo[5.1.0]octan-6-yl)-8-fluoro-2-(((2R,7aS)-2-fluorotetrahydro-1H-pyrrolizin-7a(5H)-yl)methoxy)pyrido[4,3-d]pyrimidin-7-yl)-5-ethynyl-6-fluoronaphthalen-2-ol] | 165 | –
62.6 | 311 | 40.6 | 14.9 | 19.5 | 34.1 | 866 | 17.6 | 150 | 18.7 | 2.53 | 28.1 | 560 | 56 | 63.8 | 380 | – | – | – | C#Cc1c(F)ccc2cc(O)cc(-c3ncc4c(N5CCCOCC5)nc(OC[C@@]56CCCN5C[C@H](OC)C6)nc4c3F)c12 [Compound 11, 5-ethynyl-6-fluoro-4-(8-fluoro-2-(((2R,7aS)-2-methoxytetrahydro-1H-pyrrolizin-7a(5H)-yl)methoxy)-4-(1,4-oxazepan-4-yl)pyrido[4,3-d]pyrimidin-7-yl)naphthalen-2-ol] | > 1000 | –
13.6 | 57.8 | 2.73 | 2.16 | 10.6 | 13.1 | 159 | 3.17 | – | 7.72 | 2.23 | 10 | 218 | 10.4 | 14.9 | 77.3 | – | – | – | C#Cc1c(C)ccc2cc(O)cc(-c3ncc4c(N5CCCOCC5)nc(OC[C@@]56CCCN5C[C@H](F)C6)nc4c3F)c12 [Compound 38, 5-ethynyl-4-(8-fluoro-2-(((2R,7aS)-2-fluorotetrahydro-1H-pyrrolizin-7a(5H)-yl)methoxy)-4-(1,4-oxazepan-4-yl)pyrido[4,3-d]pyrimidin-7-yl)-6-methylnaphthalen-2-ol trifluoroacetic acid] | ≥ 1000 | –
– | – | 2.09 | – | 9.92 | 9.66 | 125 | – | – | 3.36 | 1.38 | 7.34 | 156 | – | 9.92 | 61.2 | – | – | – | C#Cc1c(Cl)ccc2cc(O)cc(-c3ncc4c(N5CCCOCC5)nc(OC[C@@]56CCCN5C[C@H](F)C6)nc4c3F)c12 [Compound 39, 6-chloro-5-ethynyl-4-(8-fluoro-2-(((2R,7aS)-2-fluorotetrahydro-1H-pyrrolizin-7a(5H)-yl)methoxy)-4-(1,4-oxazepan-4-yl)pyrido[4,3-d]pyrimidin-7-yl)naphthalen-2-ol trifluoroacetic acid] | 949 | –
47.2 | 153 | 9.17 | 2.66 | 9.74 | 19.4 | 24 | 6.93 | – | 6.18 | 3.86 | 25.7 | 456 | 34 | 17.5 | 88.2 | – | – | – | C#Cc1c(F)ccc2cc(O)cc(-c3nc(NC)c4c(N5CCCOCC5)nc(OC[C@@]56CCCN5C[C@H](F)C6)nc4c3F)c12 [Compound 53, 5-ethynyl-6-fluoro-4-(8-fluoro-2-(((2R,7aS)-2-fluorotetrahydro-1H-pyrrolizin-7a(5H)-yl)methoxy)-5-(methylamino)-4-(1,4-oxazepan-4-yl)pyrido[4,3-d]pyrimidin-7-yl)naphthalen-2-ol trifluoroacetic acid] | ≥ 1000 | –
– | – | – | – | – | 182 | – | – | – | 51.6 | – | – | – | – | – | – | 56 nM and 13.5 nM | > 200 | > 100 | C#Cc1c(F)ccc2cc(O)cc(-c3ncc4c(N5CCC6CC5CO6)nc(OC[C@@]56CCCN5C[C@H](F)C6)nc4c3F)c12 (stereo partly drawn) [Compound 93] | – | IC50 [21]: 2880 nM and 2030 nM; IC50 [22]: 19.9 nM and 4.42 nM; IC50 [23]: 680 nM
– | – | – | – | – | – | – | – | – | – | – | – | – | – | – | – | 318 nM | > 200 | > 100 | C#Cc1c(F)ccc2cc(O)cc(-c3ncc4c(N5CCCOCC5)nc(OCC5CN(C(=O)C=C)CCN5C)nc4c3F)c12 (stereo not drawn) [Compound 98, 1-(3-(((7-(8-ethynyl-7-fluoro-3-hydroxy-naphthalen-1-yl)-8-fluoro-4-(1,4-oxazepan-4-yl)pyrido[4,3-d]pyrimidin-2-yl)oxy)methyl)-4-methylpiperazin-1-yl)prop-2-en-1-one] | – | IC50 [21]: 8190 nM; IC50 [22]: 54.5 nM; IC50 [23]: > 5000 nM
